Data: the supplement of paper PMC11424490

Experiments:
NCI-H2122 [1] = assay: fitted bottom plateau of viability curve, % of DMSO control; higher = less maximal inhibition; extreme values may be limits of the assay
Outline: (§1)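 In 384-well plates, NCI-H2122 cells were seeded at 800 cells/well and SW837 and NCI-H358 cells at 500 cells/well, all in 60 µl. Single compounds were added by acoustic dispensing in dose series 24 h later, with incubation for 72 h for NCI-H2122 and NCI-H358 and 144 h for SW837. CellTiter-Glo luminescence was read on an EnVision reader after 15 min shaking and expressed as percent of DMSO controls. A four-parameter nonlinear fit gave the relative IC50, averaged over replicates, and the lower plateau.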

SW837 [2] = assay: as above
Outline: as §1

NCI-H2122 [3] = assay: relative IC50 of cell viability (CellTiter-Glo); higher = less potent
Procedure: (§2)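 CellTiter-Glo proliferation assay in KRAS G12C mutant NCI-H2122 (72 h), SW837 (144 h) and NCI-H358 cells in 384-well plates. Monotherapy dose response was fitted with a four-parameter curve after normalisation to DMSO controls (% of control, PoC). IC50 is the relative IC50, averaged over replicates. Bottom is the fitted lower plateau in %PoC; Max.Conc. is the top dose tested.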

SW837 [4] = assay: as above
Procedure: as §2

Row | Compound | fitted bottom plateau of viability curve (NCI-H2122 [1]) [%] | fitted bottom plateau of viability curve (SW837 [2]) [%] | relative IC50 of cell viability (NCI-H2122 [3]) [nM] | relative IC50 of cell viability (SW837 [4]) [nM]
1 | CN[C@H]1CN(c2ccc3c(=O)c(C(=O)O)cn(-c4nccs4)c3n2)C[C@@H]1OC [Vosaroxin] (top concentration tested 2500 nM) | 34.3 | 0 | 778 | 2310
2 | COc1cccc2c1C(=O)c1c(O)c3c(c(O)c1C2=O)C[C@@](O)(C(=O)CO)C[C@@H]3O[C@H]1C[C@H](N)[C@H](O)[C@H](C)O1 [Doxorubicin] (top concentration tested 1000 nM) | 34.5 | 1.81 | 207 | 142
3 | CC(=O)O[C@H]1C(=O)[C@@]2(C)[C@H]([C@H](OC(=O)c3ccccc3)[C@]3(O)C[C@H](OC(=O)[C@H](O)[C@@H](NC(=O)c4ccccc4)c4ccccc4)C(C)=C1C3(C)C)[C@]1(OC(C)=O)CO[C@@H]1C[C@@H]2O [Paclitaxel] (top concentration tested 100.01 nM) | 4.65 | 25.6 | 3.22 | 12.5
4 | CO[C@H]1/C=C/C[C@H](C)[C@@H](C)S(=O)(=O)NC(=O)c2ccc3c(c2)N(C[C@@H]2CC[C@H]21)C[C@@]1(CCCc2cc(Cl)ccc21)CO3 [AMG176] (top concentration tested 10000 nM) | 45.9 | 96.3 | 3120 | 
5 | CS(=O)(=O)c1ccc(-c2cnc(N)c(C(=O)Nc3ccccc3)n2)cc1 [VE-821] (top concentration tested 10000 nM) | 34.2 | 82.4 | 2140 | 
6 | CC(C)C[C@@H](C(=O)N[C@H](C(=O)OC1CCCC1)c1ccccc1)[C@H](O)C(=O)NO [Tosedostat] (top concentration tested 9999.9 nM) | 51.2 | 92.2 | 776 | 
7 | Cc1ncc(NC(=O)c2cccc(C(F)(F)F)c2)cc1-c1cnc(OC2CCOCC2)c(N2CCOCC2)c1 [RAF-709] (top concentration tested 10000 nM) | 11.1 | 87.9 | 1100 | 
8 | CO[C@H]1CC[C@H](n2c([C@@H]3CCCC(=O)N3c3ccc(F)c(F)c3)nc3cc(-c4c(C)noc4C)ccc32)CC1 [CCS1477] (top concentration tested 10000 nM) | 77.8 | 36.9 |  | 1900
9 | Cc1cn(-c2cc(NC(=O)c3ccc(C)c(Nc4nccc(-c5cccnc5)n4)c3)cc(C(F)(F)F)c2)cn1 [Nilotinib] (top concentration tested 10000 nM) | 14 | 68.8 | 2510 | 
10 | CCN(CC)CCNC(=O)c1c(C)[nH]c(/C=C2\C(=O)Nc3ccc(F)cc32)c1C [Sunitinib] (top concentration tested 9999.9 nM) | 31.4 | 59.9 | 4650 | 
11 | CC1(C)CCC(CN2CCN(c3ccc(C(=O)NS(=O)(=O)c4ccc(NCC5CCOCC5)c([N+](=O)[O-])c4)c(Oc4cnc5[nH]ccc5c4)c3)CC2)=C(c2ccc(Cl)cc2)C1 [ABT-199] (top concentration tested 10000 nM) | 65.6 | 95.3 | 8090 | 
12 | COc1ncc(-c2nc3c(n2C(C)C)[C@H](c2ccc(Cl)cc2)N(c2cc(Cl)cn(C)c2=O)C3=O)c(OC)n1 [HDM-201] (top concentration tested 9999.9 nM) | 25.1 | 84.1 | 126 | 
13 | N[C@@H](Cc1ccc(N(CCCl)CCCl)cc1)C(=O)O [Melphalan] (top concentration tested 10000 nM) | 46.6 | 52.1 | 2140 | 
14 | COc1ccccc1-c1cc(Nc2cccc(CS(N)(=O)=O)c2)ncn1 [LDC-067] (top concentration tested 10000 nM) | 47.3 | 87.9 | 6690 | 
15 | CC(C)NC[C@@H](C(=O)N1CCN(c2ncnc3c2[C@H](C)C[C@H]3O)CC1)c1ccc(Cl)cc1 [Ipatasertib] (top concentration tested 10000 nM) | 57.9 | 85.8 | 642 | 
16 | COc1ccc2nc3ccc(OC)cc3c(SCCCN)c2c1 (top concentration tested 10000 nM) | 59 | 84.2 | 9650 | 
17 | O=C(/C=C\n1cnc(-c2cc(C(F)(F)F)cc(C(F)(F)F)c2)n1)NNc1cnccn1 [KPT-330] (top concentration tested 50000 nM) | 91.8 | 20.6 |  | 7020
18 | COc1cc(OC2CCN(C)CC2)ccc1Nc1ncc2c(n1)n(C1CCCC1)c(=O)n2C [AZ3146] (top concentration tested 10000 nM) | 39.4 | 57.4 | 6060 | 
19 | COc1cc(OC)c(/C=C/S(=O)(=O)Cc2ccc(OC)c(NCC(=O)O)c2)c(OC)c1 [Rigosertib] (top concentration tested 1000.1 nM) | 5.86 | 58.2 | 123 | 
